Measurements reported in patent US20200361895A1, “NOVEL SULFONAMIDE CARBOXAMIDE COMPOUNDS” (Inflazome Limited, priority 2017, published 2020).
Where a name gives a salt, the structure may show the parent alone.

Target: NLRP3 (Homo sapiens, UniProt Q96P20)
Assay: THP-1 cells pyroptosis assay (LPS + nigericin, resazurin readout; THP IC50)
Assay type: cell-based
Parameters: Seed THP-1 cells (25,000 cells/well) containing 1.0 μg/ml LPS in 40 μl of RPMI medium; host or cells: THP-1 cells
Method: THP-1 cells (ATCC #TIB-202) were grown in RPMI containing L-glutamine (Gibco #11835) supplemented with 1 mM sodium pyruvate (Sigma #S8636) and penicillin (100 units/ml)/streptomycin (0.1 mg/ml) (Sigma #P4333) in 10% Fetal Bovine Serum (FBS) (Sigma #F0804). The cells were routinely passaged and grown to confluency (˜10^6 cells/ml). On the day of the experiment, THP-1 cells were harvested and resuspended into RPMI medium (without FBS). The cells were then counted and viability (>90%) checked by Trypan blue (Sigma #T8154). Appropriate dilutions were made to give a concentration of 625,000 cells/ml. To this diluted cell solution was added LPS (Sigma #L4524) to give a 1 μg/ml Final Assay Concentration (FAC). 40 μl of the final preparation was aliquoted into each well of a 96-well plate. The plate thus prepared was used for compound screening.
The following method step-by-step assay was followed for compound screening. • 1. Seed THP-1 cells (25,000 cells/well) containing 1.0 μg/ml LPS in 40 μl of RPMI medium (without FBS) in 96-well, black walled, clear bottom cell culture plates coated with poly-D-lysine (VWR #734-0317) • 2. Add 5 μcompound (8 points half-log dilution, with 10 μM top dose) or vehicle (DMSO 0.1% FAC) to the appropriate wells • 3. Incubate for 3 hrs at 37° C. and 5% CO2 • 4. Add 5 μnigericin (Sigma #N7143) (FAC 5 μM) to all wells • 5. Incubate for 1 hr at 37° C. and 5% CO2 • 6. At the end of the incubation period, spin plates at 300×g for 3 mins and remove supernatant • 7. Then add 50 μl of resazurin (Sigma #R7017) (FAC 100 μM resazurin in RPMI medium without FBS) and incubate plates for a further 1-2 hrs at 37° C. and 5% CO2 • 8. Plates were read in an Envision reader at Ex 560 nm and Em 590 nm • 9. IC50 data is fitted to a non-linear regression equation (log inhibitor vs response-variable slope 4-parameters)

Chain of NLRP3 (Q96P20 whole entry): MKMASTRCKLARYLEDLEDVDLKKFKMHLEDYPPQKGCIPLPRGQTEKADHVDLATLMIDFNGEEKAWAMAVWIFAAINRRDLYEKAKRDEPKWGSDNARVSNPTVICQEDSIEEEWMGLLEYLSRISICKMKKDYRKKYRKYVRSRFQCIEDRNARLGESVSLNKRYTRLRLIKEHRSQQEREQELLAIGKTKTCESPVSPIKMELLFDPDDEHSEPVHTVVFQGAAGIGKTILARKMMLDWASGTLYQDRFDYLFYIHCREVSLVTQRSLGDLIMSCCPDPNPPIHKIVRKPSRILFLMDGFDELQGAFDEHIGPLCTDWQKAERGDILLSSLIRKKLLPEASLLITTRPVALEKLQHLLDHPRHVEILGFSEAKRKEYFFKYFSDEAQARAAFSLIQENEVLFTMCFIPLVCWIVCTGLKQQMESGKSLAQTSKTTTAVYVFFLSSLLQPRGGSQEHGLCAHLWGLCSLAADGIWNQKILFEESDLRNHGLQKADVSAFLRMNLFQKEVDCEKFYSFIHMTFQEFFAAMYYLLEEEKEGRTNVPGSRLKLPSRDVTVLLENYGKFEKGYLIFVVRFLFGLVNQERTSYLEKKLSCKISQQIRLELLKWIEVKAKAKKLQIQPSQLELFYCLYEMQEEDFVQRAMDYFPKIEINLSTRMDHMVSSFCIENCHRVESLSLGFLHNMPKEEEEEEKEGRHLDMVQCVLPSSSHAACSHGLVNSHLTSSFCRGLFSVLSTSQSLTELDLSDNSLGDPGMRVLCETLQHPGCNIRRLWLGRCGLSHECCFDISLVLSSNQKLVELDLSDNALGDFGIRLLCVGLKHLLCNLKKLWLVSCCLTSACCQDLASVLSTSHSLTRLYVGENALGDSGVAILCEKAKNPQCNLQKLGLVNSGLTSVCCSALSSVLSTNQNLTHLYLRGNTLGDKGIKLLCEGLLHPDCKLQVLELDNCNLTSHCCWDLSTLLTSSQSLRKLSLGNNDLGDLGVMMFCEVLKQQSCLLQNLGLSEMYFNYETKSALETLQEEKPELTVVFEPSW

SMILES	IC50 [µM]
CC(C)c1cc(F)cc(-c2cnn(C)c2)c1NC(=O)NS(=O)(=O)c1ccn(C(C)C)n1 [Example 2, N-((4-Fluoro-2-iso-propyl-6-(1-methyl-1H-pyrazol-4-yl)phenyl)carbamoyl)-1-iso-propyl-1H-pyrazole-3-sulfonamide]	≤ 5
CC(C)c1cc(F)cc(-c2cncn2C)c1NC(=O)NS(=O)(=O)c1ccn(C(C)C)n1 [Example 3, N-((4-Fluoro-2-iso-propyl-6-(1-methyl-1H-imidazol-5-yl)phenyl)carbamoyl)-1-iso-propyl-1H-pyrazole-3-sulfonamide]	≤ 5
CC(C)c1cc(F)cc(-c2ccccc2)c1NC(=O)NS(=O)(=O)c1ccn(C(C)C)n1 [Example 4, N-((5-Fluoro-3-iso-propyl-[1,1′-biphenyl]-2-yl)carbamoyl)-1-iso-propyl-1H-pyrazole-3-sulfonamide]	≤ 5
CC(C)c1cc(F)cc(-c2ccnn2C)c1NC(=O)NS(=O)(=O)c1ccn(C(C)C)n1 [Example 5, N-((4-Fluoro-2-iso-propyl-6-(1-methyl-1H-pyrazol-5-yl)phenyl)carbamoyl)-1-iso-propyl-1H-pyrazole-3-sulfonamide]	≤ 5
CC(C)c1cc(F)cc(-c2cncs2)c1NC(=O)NS(=O)(=O)c1ccn(C(C)C)n1 [Example 6, N-((4-Fluoro-2-iso-propyl-6-(thiazol-5-yl)phenyl)carbamoyl)-1-iso-propyl-1H-pyrazole-3-sulfonamide]	≤ 5
CC(C)c1cc(F)cc(-c2cnoc2)c1NC(=O)NS(=O)(=O)c1ccn(C(C)C)n1 [Example 7, N-((4-Fluoro-2-iso-propyl-6-(isoxazol-4-yl)phenyl)carbamoyl)-1-iso-propyl-1H-pyrazole-3-sulfonamide]	≤ 5
CC(C)c1cc(F)cc(-c2cccc(C#N)c2)c1NC(=O)NS(=O)(=O)c1ccn(C(C)C)n1 [Example 8, N-((3′-Cyano-5-fluoro-3-iso-propyl-[1,1′-biphenyl]-2-yl)carbamoyl)-1-iso-propyl-1H-pyrazole-3-sulfonamide, sodium salt]	≤ 5
CC(C)c1cc(F)cc(-c2ccc(C#N)cc2)c1NC(=O)NS(=O)(=O)c1ccn(C(C)C)n1 [Example 9, N-((4′-Cyano-5-fluoro-3-iso-propyl-[1,1′-biphenyl]-2-yl)carbamoyl)-1-iso-propyl-1H-pyrazole-3-sulfonamide, sodium salt]	≤ 5
Cc1cc(-c2cc(F)cc(C(C)C)c2NC(=O)NS(=O)(=O)c2ccn(C(C)C)n2)n(C)n1 [Example 11, N-((2-(1,3-Dimethyl-1H-pyrazol-5-yl)-4-fluoro-6-iso-propylphenyl)carbamoyl)-1-iso-propyl-1H-pyrazole-3-sulfonamide, partial ammonium salt]	≤ 0.5
Cc1cc(-c2cc(F)cc(C(C)C)c2NC(=O)NS(=O)(=O)c2ccn(C(C)C)n2)ccn1 [Example 13, N-((4-Fluoro-2-iso-propyl-6-(2-methylpyridin-4-yl)phenyl)carbamoyl)-1-iso-propyl-1H-pyrazole-3-sulfonamide, partial ammonium salt]	≤ 0.5
Cc1ncccc1-c1cc(F)cc(C(C)C)c1NC(=O)NS(=O)(=O)c1ccn(C(C)C)n1 [Example 14, N-((4-Fluoro-2-iso-propyl-6-(2-methylpyridin-3-yl)phenyl)carbamoyl)-1-iso-propyl-1H-pyrazole-3-sulfonamide, partial ammonium salt]	≤ 5
Cc1ccc(-c2cc(F)cc(C(C)C)c2NC(=O)NS(=O)(=O)c2ccn(C(C)C)n2)cn1 [Example 15, N-((4-Fluoro-2-iso-propyl-6-(6-methylpyridin-3-yl)phenyl)carbamoyl)-1-iso-propyl-1H-pyrazole-3-sulfonamide, partial ammonium salt]	≤ 5
CC(C)c1cc(F)cc(-c2cncc(Cl)c2)c1NC(=O)NS(=O)(=O)c1ccn(C(C)C)n1 [Example 16, N-((2-(5-Chloropyridin-3-yl)-4-fluoro-6-iso-propylphenyl)carbamoyl)-1-iso-propyl-1H-pyrazole-3-sulfonamide, partial ammonium salt]	≤ 5
